Patent US20170146538A1, “PRL-3 AS A BIOMARKER FOR THE PROGNOSIS OF CANCER AND A TARGET FOR THERAPY” (Agency for Science, Technology and Research, priority 2014, published 2017)

Columns and labels:
Format in all cases: cell-based, human
MOLM-14 cells = assay: Western blot analysis of MOLM-14 cells upon FLT3 inhibition; settings: various concentrations, 24 h, dose-dependent
Experimental: (§1) FIG. 2. […] Whole cell lysates were subjected to western blot analysis with indicated antibodies. GAPDH, loading control. A. (a-d) Western blot analysis of AML cells upon FLT3 inhibition. […] C. (a-b) Western blot analysis of AML cells upon Src inhibition.
(§2) Cells were lysed using modified RIPA buffer (50 mM Tris-HCl, 150 mM NaCl, 1% NP-40, pH 8.0, 1×protease inhibitor cocktail) and lysates were subjected to western blotting with indicated primary antibodies. Proteins recognized by the antibodies were detected using the Chemiluminescent Detection Kit (Pierce, Thermo Scientific, Rockford, Ill.).
(§3) Since STAT5 was known to be a critical downstream target of FLT3-ITD (Mizuki et al, 2000), we tested STAT5 expression level after treatment with FLT3-specific inhibitors; PKC412 or CEP-701 (Odgerel et al, 2007; Smith et al, 2004). […] We next examined whether FLT3-ITD-induced PRL-3 expression might be mediated by JAK or Src, two distinct upstream activators of STAT5 (Robinson et al, 2005; Spiekermann et al, 2003). […] To investigate the role of Src-mediated phosphorylation of STAT5 in FLT3-ITD positive AML cells. AML cells were treated with two distinct Src kinase inhibitors, SU6656 and PP2 (Blake et al, 2000; Nam et al, 2002).

TF1-ITD cells = assay: Western blot analysis of TF1-ITD cells upon FLT3 or Src inhibition; settings: various concentrations, 24 h, dose-dependent
Experimental: as §1, §2, §3

TF1-PRL-3 cells = assay: MTS cell viability assay of TF1-PRL-3 cells treated with inhibitors; settings: 72 hr; for reduction in cell number compared to DMSO-treated control cells: 5 μM
Text: FIG. 4. PRL-3 specifically activates c-Jun through ERK and JNK signaling pathways. A. SEAP reporter assay results measuring AP-1 activity in TF-1 cells overexpressing GFP (TF1-GFP) or GFP-PRL-3 (TF1-PRL-3) (mean±SD, n=3). B. (a-b) PRL-3 specifically upregulates c-Jun but not c-Fos. (a) Western blot analysis of TF1-GFP, TF1-PRL-3 and TF1-ITD cells. (b) Western blot analysis after knock-down of endogenous PRL-3 in TF1-ITD cells. GAPDH, loading control. NS, control non-silencing siRNA. C. (a-d) PRL-3-mediated upregulation of c-Jun is dependent on ERK and JNK pathways. (a) Western blot analysis after knock-down of endogenous PRL-3 in TF1-ITD and MOLM-14 cells. (b) Western blot analysis of TF1-GFP and TF1-PRL-3 cells. (c-d) Western blot analysis after knock-down of ERK1/2 or JNK in TF1-PRL-3 cells. GAPDH, loading control. NS, control non-silencing siRNA. D. […] Error bars represent the mean±SD from three independent experiments. AML Cells (1×10^4) were seeded into each well of 96-well tissue culture plates in 100 μl growth media and viable cells were measured after seeding with different inhibitors for 72 hr using the CellTiter^96 Aqueous cell proliferation assay kit. (Promega). Briefly, an aliquot of 20 μl MTS mixture was added at the indicated time of assay and reactions were performed at 37° C. for 2 hours. And absorbance was read at 490 nm wavelength using TECAN microplate reader. After establishment of linear relationship between cell numbers and absorbance from each cell line, acquired absorbance converted to cell number.

SMILES | PRL-3 protein levels (TF1-ITD cells) | phosphorylation of STAT5 (TF1-ITD cells) | phosphorylation of Src (TF1-ITD cells) | reduction in cell number compared to DMSO-treated control cells (TF1-PRL-3 cells) | further results
CO[C@@H]1[C@H](N(C)C(=O)c2ccccc2)C[C@H]2O[C@]1(C)n1c3ccccc3c3c4c(c5c6ccccc6n2c5c31)C(=O)NC4 [PKC412] | inhibited | inhibited | inhibited | – | PRL-3 protein levels (MOLM-14 cells): inhibited; phosphorylation of FLT3 (MOLM-14 cells): inhibited; phosphorylation of STAT5 (MOLM-14 cells): inhibited; phosphorylation of Src (MOLM-14 cells): inhibited; phosphorylation of FLT3 (TF1-ITD cells): inhibited
CC(C)(C)n1nc(-c2ccc(Cl)cc2)c2c(N)ncnc21 [PP2] | inhibited | inhibited | inhibited | – | –
Oc1c2ccccc2c2c3c(cccc13)N=N2 [SP600125] | – | – | – | around 50% | –
CN(C)S(=O)(=O)c1ccc2c(c1)/C(=C/c1cc3c([nH]1)CCCC3)C(=O)N2 [SU6656] | inhibited | inhibited | inhibited | – | –
N#CC(=C(/N)Sc1ccccc1N)/C(C#N)=C(\N)Sc1ccccc1N [U0126] | – | – | – | around 50% | –
COc1cc(/C=C/C(=O)CC(=O)/C=C/c2ccc(O)c(OC)c2)ccc1O [curcumin] | – | – | – | – | cell number, % of DMSO-treated cells (TF1-PRL-3 cells; 15 μM): around 50%
